US20240270701A1, “BETA ADRENERGIC AGONIST AND METHODS OF USING THE SAME” (Curasen Therapeutics, Inc., priority 2021, published 2024)
Read-outs that look alike come from different tables or passages of the source.

What was measured:
[1] = target: T1, B1-AR (Homo sapiens, UniProt P08588); assay: cAMP Gs dynamic HTRF assay, cells expressing beta-adrenergic receptor (CHO-K1), B1-AR; format: cell-based; conditions: for EC50: read-out: pEC50 [B1-AR] (converted); for Emax: read-out: Emax (% iso) (%) [B1-AR]
T1 construct: expressed in transfected cells; host or cells: CHO-K1

[2] = target: T2, B2-AR (Homo sapiens, UniProt P07550); assay: cAMP Gs dynamic HTRF assay, cells expressing beta-adrenergic receptor (CHO-K1), B2-AR; format: cell-based; conditions: for EC50: read-out: pEC50 [B2-AR] (converted); for Emax: read-out: Emax (% iso) (%) [B2-AR]
T2 construct: expressed in transfected cells; host or cells: CHO-K1

[3] = relative to full agonist isoproterenol
[4] = CHO-K1 cells, relative to full agonist isoproterenol
[5] = CHO-K1, CHO-K1 cells, relative to full agonist isoproterenol

T2 sequence (P07550 whole entry, species assumed): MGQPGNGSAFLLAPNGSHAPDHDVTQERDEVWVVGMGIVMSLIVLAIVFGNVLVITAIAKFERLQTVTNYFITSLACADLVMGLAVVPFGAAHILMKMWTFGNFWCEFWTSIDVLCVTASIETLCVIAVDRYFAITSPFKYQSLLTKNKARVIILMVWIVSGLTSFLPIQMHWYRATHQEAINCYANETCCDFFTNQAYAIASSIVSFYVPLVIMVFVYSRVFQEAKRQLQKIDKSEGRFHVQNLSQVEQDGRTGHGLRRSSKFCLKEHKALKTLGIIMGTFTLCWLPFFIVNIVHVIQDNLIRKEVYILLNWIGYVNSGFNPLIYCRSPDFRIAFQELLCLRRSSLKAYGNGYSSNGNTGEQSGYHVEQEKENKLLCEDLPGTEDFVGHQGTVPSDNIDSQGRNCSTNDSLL
T1 sequence (P08588 whole entry, species assumed): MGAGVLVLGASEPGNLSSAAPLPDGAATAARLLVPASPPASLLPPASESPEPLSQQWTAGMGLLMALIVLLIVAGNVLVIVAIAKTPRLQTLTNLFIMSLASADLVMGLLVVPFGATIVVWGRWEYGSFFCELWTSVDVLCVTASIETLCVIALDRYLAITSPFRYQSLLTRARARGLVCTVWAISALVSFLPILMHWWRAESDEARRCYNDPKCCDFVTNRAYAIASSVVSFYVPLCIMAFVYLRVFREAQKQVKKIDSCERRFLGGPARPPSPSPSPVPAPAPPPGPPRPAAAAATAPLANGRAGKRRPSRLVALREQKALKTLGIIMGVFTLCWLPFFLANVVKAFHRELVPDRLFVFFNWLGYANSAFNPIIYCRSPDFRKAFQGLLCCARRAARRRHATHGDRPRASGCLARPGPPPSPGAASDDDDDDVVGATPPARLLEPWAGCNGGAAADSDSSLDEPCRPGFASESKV

Compound | EC50 ([1]; cAMP HTRF) [nM] | Emax [1, 3] [%] | EC50 ([2]; CHO-K1 cells, cAMP HTRF) [nM] | Emax [2, 4] [%] | Emax [2, 5] [%] | pEC50 [B1-AR] ([1]; cAMP HTRF) | Emax (% iso) (%) [B1-AR] [1, 3] | pEC50 [B2-AR] ([2]; CHO-K1 cells, cAMP HTRF) | Emax (% iso) (%) [B2-AR] [2, 4]
Cn1ccc(CNC[C@H](O)c2cccc3[nH]nc(F)c23)n1 [I-78] | 100 to 1000 | 70 to 90 | 100 to 1000 | > 90 | – | – | – | – | –
CC(C)(NC[C@H](O)c1cccc2[nH]nc(F)c12)C1CC1 [I-20] | < 10 | > 90 | < 10 | – | > 90 | – | – | – | –
Cc1n[nH]c2cccc([C@@H](O)CNC3CCC3)c12 [I-166] | 100 to 1000 | 50 to 70 | 10 to 100 | 70 to 90 | – | – | – | – | –
CC(C)[C@@H](C)NC[C@H](O)c1cccc2[nH]ncc12 [I-33] | < 10 | 70 to 90 | < 10 | > 90 | – | – | – | – | –
COc1ccc(C[C@@H](C)NC[C@H](O)c2cc(F)cc3[nH]ncc23)cc1 [I-15] | < 10 | > 90 | < 10 | > 90 | – | – | – | – | –
CC(C)(C)CNC[C@H](O)c1cccc2[nH]nc(F)c12 [I-90] | 100 to 1000 | 70 to 90 | 10 to 100 | – | > 90 | – | – | – | –
CC(C)CNC[C@H](O)c1cncc2[nH]ncc12 [I-163] | > 1000 | 70 to 90 | > 1000 | 50 to 70 | – | – | – | – | –
C[C@@H](NC[C@H](O)c1ccc(F)c2[nH]ncc12)C(C)(C)C [I-16] | 10 to 100 | > 90 | < 10 | – | > 90 | – | – | – | –
Cn1ncc2c([C@@H](O)CNC(C)(C)C)cc(F)cc21 [I-84] | – | – | – | – | – | B (B=>7-8) | B (B=>70-90%) | A (A=>8) | B (B=>70-90%)
C[C@H](NC[C@H](O)c1cccc2[nH]ncc12)C(C)(C)C [I-6] | 100 to 1000 | 70 to 90 | < 10 | – | > 90 | – | – | – | –
Cc1ncccc1[C@@H](O)CNCC(C)C [I-183] | > 1000 | < 50 | > 1000 | – | 50 to 70 | – | – | – | –
Cn1ccc(CNC[C@H](O)c2cccc3[nH]ncc23)n1 [I-64] | 100 to 1000 | 70 to 90 | 100 to 1000 | > 90 | – | – | – | – | –
